# Laboratory results from ChEMBL document CHEMBL4017483, “Potent and selective oxytocin receptor agonists without disulfide bridges” (Bioorg Med Chem Lett, 2017).
# Numbered stars: 1 amine (or outer) side, 2 acyl side, 3 side chain; on linkers, the order of the positions; unused ones are H or OH. Bridge positions count the residues as written; N and C are the ends. Square brackets hold non-standard residues; d marks the D form. Peptide text beside a SMILES is read from it. Hyp = O=C(O)[C@@H]1C[C@@H](O)CN1; Suc = O=C(CCC(=O)[*:2])[*:1]; NMeS = CN[C@@H](CO)C(=O)O; NMeA = CN[C@@H](C)C(=O)O; X1 = O=C(CCC[*:2])[*:1]; Dap = NC[C@H](N)C(=O)O; Mpa = O=C(O)CCS
# How the values were obtained:
# Homo sapiens [1] = species: Homo sapiens; test: Selectivity ratio of EC50 for human V1a receptor to EC50 for human OTR
# Vasopressin V1b receptor = target: T1, Vasopressin V1b receptor (Homo sapiens, UniProt P47901); test: Agonist activity at human V1b receptor expressed in CHO cells assessed as calcium mobilization measured after 30 mins by Fluo-4-AM dye based FLIPR assay; assay type: cell-based
# T1 sequence (P47901 whole entry): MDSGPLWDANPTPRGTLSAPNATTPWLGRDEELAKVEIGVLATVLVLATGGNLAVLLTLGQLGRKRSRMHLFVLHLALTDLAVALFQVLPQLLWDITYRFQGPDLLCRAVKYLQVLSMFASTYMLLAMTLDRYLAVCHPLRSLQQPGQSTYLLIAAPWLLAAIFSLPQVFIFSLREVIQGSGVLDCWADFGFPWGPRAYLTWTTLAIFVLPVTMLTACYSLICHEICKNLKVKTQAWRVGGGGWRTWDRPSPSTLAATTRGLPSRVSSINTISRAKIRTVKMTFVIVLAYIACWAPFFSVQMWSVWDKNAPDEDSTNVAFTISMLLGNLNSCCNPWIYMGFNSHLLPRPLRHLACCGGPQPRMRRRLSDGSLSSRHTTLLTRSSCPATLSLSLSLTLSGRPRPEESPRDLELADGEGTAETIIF
# Vasopressin V1a receptor = Vasopressin V1a receptor (Homo sapiens, UniProt P37288); test: Agonist activity at human V1a receptor expressed in CHO cells assessed as calcium mobilization measured after 30 mins by Fluo-4-AM dye based FLIPR assay; assay type: cell-based
# Chain of Vasopressin V1a receptor (P37288 whole entry): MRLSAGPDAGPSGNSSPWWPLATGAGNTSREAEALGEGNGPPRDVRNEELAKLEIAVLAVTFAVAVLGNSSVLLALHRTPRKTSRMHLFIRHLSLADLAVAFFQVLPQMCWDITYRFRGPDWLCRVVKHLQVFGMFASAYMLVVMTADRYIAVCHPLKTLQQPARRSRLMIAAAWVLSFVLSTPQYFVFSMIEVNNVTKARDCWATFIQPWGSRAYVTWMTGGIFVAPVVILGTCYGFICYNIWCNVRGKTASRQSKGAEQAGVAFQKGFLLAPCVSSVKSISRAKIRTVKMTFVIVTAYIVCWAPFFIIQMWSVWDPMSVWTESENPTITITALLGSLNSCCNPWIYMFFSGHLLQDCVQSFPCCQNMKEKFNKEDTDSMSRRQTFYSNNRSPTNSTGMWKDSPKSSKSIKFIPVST
# Homo sapiens [2] = species: Homo sapiens; test: Selectivity ratio of EC50 for human V1b receptor to EC50 for human OTR
# Oxytocin receptor = target: T2, Oxytocin receptor (Homo sapiens, UniProt P30559); test: Agonist activity at human OTR expressed in CHO cells assessed as calcium mobilization measured after 30 mins by Fluo-4-AM dye based FLIPR assay; assay type: functional, cell-based
# T2 sequence (P30559 whole entry): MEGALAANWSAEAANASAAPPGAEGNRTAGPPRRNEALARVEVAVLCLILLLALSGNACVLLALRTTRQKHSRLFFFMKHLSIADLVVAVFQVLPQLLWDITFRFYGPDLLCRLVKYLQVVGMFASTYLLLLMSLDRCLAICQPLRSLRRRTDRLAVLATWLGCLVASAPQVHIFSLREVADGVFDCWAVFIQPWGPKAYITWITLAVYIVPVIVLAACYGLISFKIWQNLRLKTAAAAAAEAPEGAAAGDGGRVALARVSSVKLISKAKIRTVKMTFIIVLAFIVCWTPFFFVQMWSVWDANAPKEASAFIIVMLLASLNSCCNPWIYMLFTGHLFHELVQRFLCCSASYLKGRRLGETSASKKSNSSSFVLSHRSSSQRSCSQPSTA
SMILES,Ratio EC50 (Homo sapiens [1]),EC50 (Vasopressin V1b receptor),EC50 (Vasopressin V1a receptor),Ratio EC50 (Homo sapiens [2]),EC50 (Oxytocin receptor)
CC[C@H](C)[C@@H]1NC(=O)[C@H](Cc2ccc(O)cc2)NC(=O)CCSSC[C@@H](C(=O)N2CCC[C@H]2C(=O)N[C@@H](CC(C)C)C(=O)NCC(N)=O)NC(=O)[C@H](CO)NC(=O)[C@H](CCC(N)=O)NC1=O ([Mpa]YIQSCPLG-NH2; disulfide 1-6),> 8,> 100 nM,> 100 nM,> 8,12 nM
CCCCCCC(NC(=O)[C@@H]1CCCN1C(=O)[C@@H]1CSSCCC(=O)N[C@@H](Cc2ccc(O)cc2)C(=O)N[C@@H]([C@@H](C)CC)C(=O)N[C@@H](CCC(N)=O)C(=O)N[C@@H](CC(N)=O)C(=O)N1)C(=O)NCC(N)=O (stereo partly drawn),120,0.55 nM,3.1 nM,20,0.027 nM
CCCC[C@H](NC(=O)[C@@H]1CCCN1C(=O)[C@@H]1CSSCCC(=O)N[C@@H](Cc2ccc(O)cc2)C(=O)N[C@@H]([C@@H](C)CC)C(=O)N[C@@H](CCC(N)=O)C(=O)N[C@@H](CC(N)=O)C(=O)N1)C(=O)NCC(N)=O,290,0.5 nM,4.4 nM,33,0.015 nM
CC[C@H](C)[C@@H]1NC(=O)[C@H](Cc2ccc(O)cc2)NC(=O)CCSSC[C@@H](C(=O)N2CCC[C@H]2C(=O)N[C@@H](CC(C)C)C(=O)N[C@@H](CCCNC(=N)N)C(N)=O)NC(=O)[C@H](CC(N)=O)NC(=O)[C@H](CCC(N)=O)NC1=O ([Mpa]YIQNCPLR-NH2; disulfide 1-6),> 100,> 100 nM,> 100 nM,> 100,0.53 nM
CC[C@H](C)[C@@H]1NC(=O)[C@H](Cc2ccc(O)cc2)NC(=O)CCSSC[C@@H](C(=O)N2CCC[C@H]2C(=O)N[C@@H](CCCNC(=N)N)C(=O)NCC(N)=O)NC(=O)[C@H](CC(N)=O)NC(=O)[C@H](CCC(N)=O)NC1=O ([Mpa]YIQNCPRG-NH2; disulfide 1-6),4,0.034 nM,0.12 nM,1.1,0.03 nM
CC[C@H](C)[C@@H]1NC(=O)[C@H](Cc2ccc(O)cc2)NC(=O)CCSSC[C@@H](C(=O)N2CCC[C@H]2C(=O)N[C@@H](CC(C)C)C(=O)NCC(N)=O)NC(=O)[C@H](C)NC(=O)[C@H](CCC(N)=O)NC1=O ([Mpa]YIQACPLG-NH2; disulfide 1-6),> 5,> 100 nM,> 100 nM,> 5,17 nM
CC[C@H](C)[C@@H]1NC(=O)[C@H](Cc2ccc(O)cc2)NC(=O)CCSSC[C@@H](C(=O)N[C@@H](C)C(=O)N[C@@H](CC(C)C)C(=O)NCC(N)=O)NC(=O)[C@H](CC(N)=O)NC(=O)[C@H](CCC(N)=O)NC1=O ([Mpa]YIQNCALG-NH2; disulfide 1-6),> 1000,> 100 nM,> 100 nM,> 1000,0.07 nM
CC[C@H](C)[C@@H]1NC(=O)[C@H](Cc2ccc(O)cc2)NC(=O)CCSSC[C@@H](C(=O)N(C)[C@@H](C)C(=O)N[C@@H](CC(C)C)C(=O)NCC(N)=O)NC(=O)[C@H](CC(N)=O)NC(=O)[C@H](CCC(N)=O)NC1=O ([Mpa]YIQNC[NMeA]LG-NH2; disulfide 1-6),> 100,> 100 nM,> 100 nM,> 100,0.11 nM
CC[C@H](C)[C@@H]1NC(=O)[C@H](C)NC(=O)CCSSC[C@@H](C(=O)N2CCC[C@H]2C(=O)N[C@@H](CC(C)C)C(=O)NCC(N)=O)NC(=O)[C@H](CC(N)=O)NC(=O)[C@H](CCC(N)=O)NC1=O ([Mpa]AIQNCPLG-NH2; disulfide 1-6),,> 100 nM,> 100 nM,,> 100 nM
CC[C@H](C)[C@@H]1NC(=O)[C@H](Cc2ccc(O)cc2)NC(=O)CCSSC[C@@H](C(=O)N2CCC[C@H]2C(=O)N[C@@H](CC(C)C)C(=O)NCC(N)=O)NC(=O)[C@H](CC(N)=O)NC(=O)[C@H](CCC(=O)O)NC1=O ([Mpa]YIENCPLG-NH2; disulfide 1-6),> 10,> 100 nM,> 100 nM,> 10,5.1 nM
CC[C@H](C)[C@@H]1NC(=O)[C@H](Cc2ccc(O)cc2)NC(=O)CCSSC[C@@H](C(=O)N2CCC[C@H]2C(=O)N[C@@H](CC(C)C)C(=O)NCC(N)=O)NC(=O)[C@H](CCCNC(=N)N)NC(=O)[C@H](CCC(N)=O)NC1=O ([Mpa]YIQRCPLG-NH2; disulfide 1-6),,> 100 nM,> 100 nM,,> 100 nM
CC[C@H](C)[C@@H]1NC(=O)[C@H](Cc2ccc(O)cc2)NC(=O)CCCSC[C@@H](C(=O)N2CCC[C@H]2C(=O)N[C@@H](CC(C)C)C(=O)NCC(N)=O)NC(=O)[C@H](CC(N)=O)NC(=O)[C@H](CCC(N)=O)NC1=O (YIQNCPLG-NH2; linker N-5 via X1),6700,6.5 nM,45 nM,970,0.0067 nM
CC[C@H](C)[C@@H]1NC(=O)[C@H](Cc2ccc(O)cc2)NC(=O)CCC(=O)NC[C@@H](C(=O)N2C[C@H](O)C[C@H]2C(=O)N[C@@H](CC(C)C)C(=O)NCC(N)=O)NC(=O)[C@H](CC(N)=O)NC(=O)[C@H](CCC(N)=O)NC1=O (YIQN[Dap][Hyp]LG-NH2; linker N-5 via Suc),> 1000,> 100 nM,> 100 nM,> 1000,0.013 nM
CC[C@H](C)[C@@H]1NC(=O)[C@H](Cc2ccc(O)cc2)NC(=O)CCSSC[C@@H](C(=O)N(C)[C@@H](CO)C(=O)N[C@@H](CC(C)C)C(=O)NCC(N)=O)NC(=O)[C@H](CC(N)=O)NC(=O)[C@H](CCC(N)=O)NC1=O ([Mpa]YIQNC[NMeS]LG-NH2; disulfide 1-6),> 1000,> 100 nM,> 100 nM,> 1000,0.042 nM
CC[C@H](C)[C@@H]1NC(=O)[C@H](CCCNC(=N)N)NC(=O)CCSSC[C@@H](C(=O)N2CCC[C@H]2C(=O)N[C@@H](CC(C)C)C(=O)NCC(N)=O)NC(=O)[C@H](CC(N)=O)NC(=O)[C@H](CCC(N)=O)NC1=O ([Mpa]RIQNCPLG-NH2; disulfide 1-6),,> 100 nM,> 100 nM,,> 100 nM
CC[C@H](C)[C@@H]1NC(=O)[C@H](CO)NC(=O)CCSSC[C@@H](C(=O)N2CCC[C@H]2C(=O)N[C@@H](CC(C)C)C(=O)NCC(N)=O)NC(=O)[C@H](CC(N)=O)NC(=O)[C@H](CCC(N)=O)NC1=O ([Mpa]SIQNCPLG-NH2; disulfide 1-6),,> 100 nM,> 100 nM,,> 100 nM
CC(C)C[C@H](NC(=O)[C@@H]1CCCN1C(=O)[C@@H]1CSSCCC(=O)N[C@@H](Cc2ccc(O)cc2)C(=O)N[C@@H](CCCNC(=N)N)C(=O)N[C@@H](CCC(N)=O)C(=O)N[C@@H](CC(N)=O)C(=O)N1)C(=O)NCC(N)=O ([Mpa]YRQNCPLG-NH2; disulfide 1-6),,> 100 nM,> 100 nM,,> 100 nM
CC[C@H](C)[C@@H]1NC(=O)[C@H](CCC(=O)O)NC(=O)CCSSC[C@@H](C(=O)N2CCC[C@H]2C(=O)N[C@@H](CC(C)C)C(=O)NCC(N)=O)NC(=O)[C@H](CC(N)=O)NC(=O)[C@H](CCC(N)=O)NC1=O ([Mpa]EIQNCPLG-NH2; disulfide 1-6),,> 100 nM,> 100 nM,,> 100 nM
CC[C@H](C)[C@@H]1NC(=O)[C@H](Cc2ccc(O)cc2)NC(=O)CCSSC[C@@H](C(=O)N2CCC[C@H]2C(=O)N[C@@H](CC(C)C)C(=O)NCC(N)=O)NC(=O)[C@H](CC(N)=O)NC(=O)[C@H](CCC(N)=O)NC1=O,,3.2 nM,,,
CC[C@H](C)[C@@H]1NC(=O)[C@H](Cc2ccc(O)cc2)NC(=O)CCSSC[C@@H](C(=O)N2CCC[C@H]2C(=O)N[C@@H](CC(C)C)C(=O)NCC(N)=O)NC(=O)[C@H](CC(C)C)NC(=O)[C@H](CCC(N)=O)NC1=O ([Mpa]YIQLCPLG-NH2; disulfide 1-6),,> 100 nM,> 100 nM,,> 100 nM
CC[C@H](C)[C@@H]1NC(=O)[C@H](Cc2ccc(O)cc2)NC(=O)CCSSC[C@@H](C(=O)N2CCC[C@H]2C(=O)N[C@@H](CC(C)C)C(=O)NCC(N)=O)NC(=O)[C@H](Cc2ccccc2)NC(=O)[C@H](CCC(N)=O)NC1=O ([Mpa]YIQFCPLG-NH2; disulfide 1-6),,> 100 nM,> 100 nM,,> 100 nM
CC(C)C[C@H](NC(=O)[C@@H]1CCCN1C(=O)[C@@H]1CSSCCC(=O)N[C@@H](Cc2ccc(O)cc2)C(=O)N[C@@H](CCC(=O)O)C(=O)N[C@@H](CCC(N)=O)C(=O)N[C@@H](CC(N)=O)C(=O)N1)C(=O)NCC(N)=O ([Mpa]YEQNCPLG-NH2; disulfide 1-6),,> 100 nM,> 100 nM,,> 100 nM
